Series [1] relates to HT-29 colon carcinoma cells. The experiment in a line: Cytotoxicity, microculture tetrazolium assay (MTT), HT-29 cell system. It is filed as cell-based. The following applies: 48 hours incubation, T/C of 50% growth inhibition. How it is done: Cytotoxicity was measured using standard methodology for adherent cell lines, such as the microculture tetrazolium assay (MTT). Details of this assay have been published (Alley, M. C., et al., Cancer Research, 48: 589-601,(1988)). Exponentially growing cultures of HT-29 colon carcinoma cells were used to make microtiter plate cultures. Cells were seeded at 5000-20,000 cells per well in 96-well plates (in […] of media), and grown overnight at 37° C. Test compounds were added, in 10-fold dilutions varying from 10^-4 M to 10^-10 M. Cells were then incubated for 48 hours. To determine the number of viable cells in each well, the MTT dye was added ([…] of a 3 mg/ml solution of 3-(4,5-dimethylthiazol-2-yl)-2,5-diphenyltetrazolium bromide in saline). This mixture was incubated at 37° C. for 5 hours, and then […] of 25% SDS, pH 2, was added to each well. After an overnight incubation, the absorbance of each well at 550 nm was read using an ELISA reader. The values for the mean ±SD of data from replicated wells were calculated, using the formula % T/C (% viable cells treated/control). The concentration of test compound which gives a T/C of 50% growth inhibition was designated as the IC50.
Table 9, below, presents the IC50 values determined in the HT-29 cell system: […]

For series [2] the following is noted: synthetic Dolastatin 15; cited from earlier work.
Series [3] has as its system P388 lymphocytic leukemia (PS system) cell line. The following applies: cited from earlier work.

One may read the IC50 as the midpoint of a concentration-inhibition curve. As to “2-[(S)-(Me2 Val-Val-MeVal-Pro-pyrorolidin-2-yl)]-5-phenyloxazole [III-12]”, the midpoint of inhibition in series [1], the IC50, lay at 900 nM. This lies in the sub-micromolar range.

“2-[(S)-(Me2 Val-Val-MeVal-Pro-pyrrolidin-2-yl)]-3,4-dimethyl-thiazole [III-28]”: half-maximal inhibition in series [1] (IC50) was put at 400 nM.

With `CC(=O)[C@@H]1CCCN1C(=O)[C@@H]1CCCN1C(=O)[C@H](C(C)C)N(C)C(=O)[C@@H](NC(=O)[C@H](C(C)C)N(C)C)C(C)C` [Compound I-1, (S)-(Me2 Val-Val-MeVal-Pro-pyrrolidin-2-yl)-methylketone], the IC50 in series [1] is more than 1000 nM.

`CCCCC(=O)[C@@H]1CCCN1C(=O)[C@@H]1CCCN1C(=O)[C@H](C(C)C)N(C)C(=O)[C@@H](NC(=O)[C@H](C(C)C)N(C)C)C(C)C` [Compound I-5, (S)-(Me2 Val-Val-MeVal-Pro-pyrrolidin-2-yl)butylketone]: the IC50 in series [1] was more than 1000 nM.

The compound `COCC(=O)[C@@H]1CCCN1C(=O)[C@@H]1CCCN1C(=O)[C@H](C(C)C)N(C)C(=O)[C@@H](NC(=O)[C@H](C(C)C)N(C)C)C(C)C` [Compound I-12, (S)-(Me2 Val-Val-MeVal-Pro-pyrrolidin-2-yl)methoxy-methylketone] gave a half-maximal inhibitory concentration (IC50) in series [1] of 400 nM.

In series [1], `COc1ccc(C(=O)[C@@H]2CCCN2C(=O)[C@@H]2CCCN2C(=O)[C@H](C(C)C)N(C)C(=O)[C@@H](NC(=O)[C@H](C(C)C)N(C)C)C(C)C)cc1` [Compound I-22, (S)-(Me2 Val-Val-MeVal-Pro-pyrrolidin-2-yl)-(4-methoxyphenyl) ketone] yielded a concentration for half-maximal inhibition (IC50) of more than 1000 nM.

In series [1], `CC(C)[C@H](NC(=O)[C@H](C(C)C)N(C)C)C(=O)N(C)[C@H](C(=O)N1CCC[C@H]1C(=O)N1CCC[C@H]1C(=O)c1ccc(F)cc1)C(C)C` [Compound I-32, (S)-(Me2Val-Val-MeVal-Pro-pyrrolidin-2-yl)-(4-fluorophenyl) ketone] registered an IC50 of more than 1000 nM.

In series [1], “(S)-(Me2Val-Val-MeVal-Pro-pyrrolidin-2-yl)-trifluoromethyl-ketone [Compound I-54]” displayed an IC50 of more than 1000 nM.

In the case of Dolastatin 15, the “solubility in aqueous systems” value in series [2] is on record as “poor solubility in aqueous systems”. The “inhibition of growth of P388 lymphocytic leukemia cell line” value in series [3] is recorded as “markedly inhibits the growth”.

Source of the values: patent publication US5965537A, “Dolastatin 15 derivatives with carbonyl and heterocyclic functionalities at the C-terminus” (BASF Aktiengesellschaft, priority 1997, dated 1999).
